IC50 data for twelve compounds are collected here from patent US9932340B2, “Substituted indoles” (AbbVie Inc., priority 2014, dated 2018).

Each structure is given as a SMILES string. A value given as a limit tells only on which side of the number the result lay.

Chain of SUV420H1 enzyme (Q4FZB7 whole entry): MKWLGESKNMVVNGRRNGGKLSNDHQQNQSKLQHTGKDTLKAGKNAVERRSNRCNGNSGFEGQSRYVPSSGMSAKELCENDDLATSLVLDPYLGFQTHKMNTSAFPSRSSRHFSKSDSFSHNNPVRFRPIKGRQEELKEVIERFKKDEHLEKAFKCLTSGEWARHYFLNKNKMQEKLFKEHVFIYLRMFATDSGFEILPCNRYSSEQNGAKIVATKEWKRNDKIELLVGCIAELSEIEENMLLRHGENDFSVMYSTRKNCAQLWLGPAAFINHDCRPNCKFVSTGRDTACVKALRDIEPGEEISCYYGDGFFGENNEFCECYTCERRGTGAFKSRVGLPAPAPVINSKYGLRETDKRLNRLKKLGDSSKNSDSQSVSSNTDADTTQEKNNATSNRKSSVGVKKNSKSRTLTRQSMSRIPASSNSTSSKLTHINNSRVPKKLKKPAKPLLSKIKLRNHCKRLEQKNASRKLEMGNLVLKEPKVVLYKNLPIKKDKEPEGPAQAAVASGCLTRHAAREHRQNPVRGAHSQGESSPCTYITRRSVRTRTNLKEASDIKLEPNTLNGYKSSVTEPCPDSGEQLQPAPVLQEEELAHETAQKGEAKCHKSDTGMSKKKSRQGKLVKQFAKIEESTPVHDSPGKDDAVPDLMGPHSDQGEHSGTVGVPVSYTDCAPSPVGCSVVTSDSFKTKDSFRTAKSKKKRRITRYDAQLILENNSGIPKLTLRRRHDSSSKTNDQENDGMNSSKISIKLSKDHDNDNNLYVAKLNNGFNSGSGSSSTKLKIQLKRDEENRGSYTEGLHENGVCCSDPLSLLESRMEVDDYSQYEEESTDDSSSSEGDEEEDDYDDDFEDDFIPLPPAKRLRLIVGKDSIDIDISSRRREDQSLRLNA

This experiment addresses SUV420H1 enzyme (Homo sapiens, UniProt Q4FZB7). The experiment is described as follows: TR-FRET SAH SUV420H1 enzyme inhibition assay. Format: biochemical. The note with it: Histone Peptide H4(8-30)me1 and SAM, overnight at room temp, TR-FRET detection of SAH, read-out: TR-FRET SAH_SUV420H1 IC50. A digest of the protocol:
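SUV420H1 (90 nM) preincubated 30 min with compound (3-fold dilutions, 50 to 0.00075 μM), then H4(8-30)me1 peptide 5 nM and SAM 4 nM added, overnight at room temp. SAH product detected by TR-FRET with Tb anti-SAH antibody and Oregon Green-SAH in RIPA buffer, 4 h; IC50 from Hill fit, asymptotes fixed 0-100%.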
A word on the IC50: it is the concentration at which inhibition is half-maximal. Consider `Cc1n[nH]c2ncc(C(=O)NCc3cc4cc(Cl)cc(Cn5cnc6c(N)ncnc65)c4[nH]3)cc12` [Example 353, N-({7-[(6-amino-9H-purin-9-yl)methyl]-5-chloro-1H-indol-2-yl}methyl)-3-methyl-1H-pyrazolo[3,4-b]pyridine-5-carboxamide], for which the IC50 was > 50000 nM.

In the case of `CC(=O)N1CC=C(c2cc(Cn3cnc4c(N)ncnc43)c3[nH]c(CNC(=O)c4cc(C)nnc4C)cc3c2)CC1` [Example 237, N-({5-(1-acetyl-1,2,3,6-tetrahydropyridin-4-yl)-7-[(6-amino-9H-purin-9-yl)methyl]-1H-indol-2-yl}methyl)-3,6-dimethylpyridazine-4-carboxamide], the IC50 was 28.8 nM.

For `CCCCc1nc2cc(C(=O)NCc3cc4cc(Cl)cc(Cn5cnc6c(N)ncnc65)c4[nH]3)ccc2o1` [Example 379, N-({7-[(6-amino-9H-purin-9-yl)methyl]-5-chloro-1H-indol-2-yl}methyl)-2-butyl-1,3-benzoxazole-5-carboxamide], the IC50 was found to be 765 nM.

In the case of `Nc1ncnc2c1ncn2Cc1cc(Cl)cc2cc(CNC(=O)c3cncs3)[nH]c12` [Example 138, N-({7-[(6-amino-9H-purin-9-yl)methyl]-5-chloro-1H-indol-2-yl}methyl)-1,3-thiazole-5-carboxamide], the IC50 is 1640 nM.

With `N#Cc1ccccc1CNCc1cc2cc(Cl)cc(Cn3cnc4c(N)ncnc43)c2[nH]1` [Example 269, 2-{[({7-[(6-amino-9H-purin-9-yl)methyl]-5-chloro-1H-indol-2-yl}methyl)amino]methyl}benzonitrile], the IC50 is 5600 nM.

For the compound `Nc1ncnc2c1ncn2Cc1cc(Cl)cc2cc(CNC(=O)c3ccccc3N3CCCCC3)[nH]c12` [Example 322, N-({7-[(6-amino-9H-purin-9-yl)methyl]-5-chloro-1H-indol-2-yl}methyl)-2-(piperidin-1-yl)benzamide], the IC50 came out at 29900 nM.

On to `Cc1noc(C)c1C(=O)NCc1cc2cc(Cl)cc(Cn3cnc4c(N)ncnc43)c2[nH]1` [Example 162, N-({7-[(6-amino-9H-purin-9-yl)methyl]-5-chloro-1H-indol-2-yl}methyl)-3,5-dimethyl-1,2-oxazole-4-carboxamide], for which the IC50 came out at 237 nM.

Consider `Nc1ncnc2c1ncn2Cc1cc(Cl)cc2cc(CNC(=O)c3cnn4c3CCCC4)[nH]c12` [Example 192, N-({7-[(6-amino-9H-purin-9-yl)methyl]-5-chloro-1H-indol-2-yl}methyl)-4,5,6,7-tetrahydropyrazolo[1,5-a]pyridine-3-carboxamide], for which the IC50 was 2140 nM.

On to `Nc1ncnc2c1ncn2Cc1cc(Cl)cc2cc(CNC(=O)c3ccc4[nH]ccc4c3)[nH]c12` [Example 357, N-({7-[(6-amino-9H-purin-9-yl)methyl]-5-chloro-1H-indol-2-yl}methyl)-1H-indole-5-carboxamide], for which the IC50 was 12000 nM.

`Nc1ncnc2c1ncn2Cc1cc(Cl)cc2cc(CNC(=O)Cc3ccc(Cl)cc3)[nH]c12` [Example 251, N-({7-[(6-amino-9H-purin-9-yl)methyl]-5-chloro-1H-indol-2-yl}methyl)-2-(4-chlorophenyl)acetamide]: the IC50 is > 50000 nM.

Regarding `Cc1[nH]c2cc(C(=O)NCc3cc4cc(Cl)cc(Cn5cnc6c(N)ncnc65)c4[nH]3)ccc2c1C` [Example 374, N-({7-[(6-amino-9H-purin-9-yl)methyl]-5-chloro-1H-indol-2-yl}methyl)-2,3-dimethyl-1H-indole-6-carboxamide], the IC50 was 261 nM.

For the compound `N#Cc1cccc(CNCc2cc3cc(Cl)cc(Cn4cnc5c(N)ncnc54)c3[nH]2)c1` [Example 268, 3-{[({7-[(6-amino-9H-purin-9-yl)methyl]-5-chloro-1H-indol-2-yl}methyl)amino]methyl}benzonitrile], the IC50 was determined as 4640 nM.
